# Source: patent US20240287123A1 (Victoria Link Limited, priority 2021, published 2024)
# Entries after “also recorded” stand apart in the source; their conditions may differ. Read-outs that look alike come from different tables or passages of the source.
# What was measured:
# HIVADA = assay: HIV p24 alphaLISA in infected monocyte derived macrophages; type: cell-based, Human Immunodeficiency Virus
# Protocol: Primary human MDMs were cultured from peripheral blood mononuclear cells and pre-treated for 24 h with ddhC (100 μM), compound 8 (100 μM), compound 21 (100 μM), emtricitabine control (15 μM, 10 μM, 1 μM, 0.1 μM), or the drug vehicle, DMSO. MDM were then infected with HIVADA in the presence of these compounds and treated daily (with compound), while culture supernatants were collected to quantify levels of HIV p24, a viral capsid protein, on days 2-7 of infection.
# Leukopaks from healthy donors were obtained from the New York Blood Center and processed by Ficoll gradient centrifugation to isolate peripheral blood mononuclear cells (PBMC). These PBMC were cultured adherently into monocyte derived macrophages (MDM), according to published protocols, on 60 mm dishes for 6 days with 10-20 ng/ml macrophage colony stimulating factor (M-CSF). MDM were pre-treated with ddhC, compound 8, compound 21, emtricitabine (Cat. No .: 10071), or DMSO vehicle at indicated concentrations for 24 hours (NIH AIDS Reagent Program, Bethesda, MD). Cells were left uninfected or infected for 24 h in the presence of one of the compounds listed above with 20 ng/mL HIVADA, a macrophage-tropic HIV strain originally derived from a person with HIV (NIH). Media was changed daily with the mentioned compounds added each time, and supernatants were collected on days 2, 3, 4, 5, 6, and 7 of infection. Each treatment condition was analyzed in duplicate plates per experiment.
# Supernatant samples were analyzed for the viral capsid protein, HIV p24, by a sensitive p24 alphaLISA according to the manufacturer's protocol (Perkin-Elmer, Waltham, MA). Treatment conditions were analyzed in duplicate plates, and each supernatant was analyzed in duplicate on a 96-well alphaLISA plate. These were then fit to a sigmoid standard curve to extrapolate HIV p24 levels in pg/mL within the assay limits of detection.
# primary human MDM = assay: Toxicity to MDM: LDH assay and light microscopy; type: cell-based
# Protocol: Light microscopy was used to image MDMs on day 7 of infection. […] Colorimetric LDH assays were also performed on culture supernatants from these same cells on day 4 of infection to assess cell death.
# At the end of each experiment, cells were imaged by light microscopy. After aspirating off media, cells were washed with PBS, and lysates were harvested in extraction buffer containing 0.1% Formic acid, 50% ACN, 40% MeOH, 10% H2O.
# Drug toxicity was analyzed using an LDH assay kit according to manufacturer's instructions (Abcam #ab65393, Toronto, Canada). Briefly, supernatants from duplicate plates per treatment condition were added to a 96-well plate. Each supernatant was run in triplicate. Provided assay buffer was added to culture supernatants after mixing with a substrate solution that turns orange upon lactate exposure. After incubation for 30-45 min, colorimetric signal was quantified an OD of 450 nm. LDH was a positive control as well as cells lysed with 10% lysis buffer in media representing the “high control” to which % cytotoxicity was measured. The reference sample was either control uninfected cells treated with DMSO or negative control HIV-infected cells treated with DMSO. Culture media alone was used as a technical negative control. This background signal that was subtracted from all test wells.
# [1] = Cytotoxicity in Akata cells (CTG), concurrent with EBV assay; type: cell-based; details: human, Akata cells (without virus induction), Table 1
# Protocol: (§1) Each experiment that evaluates the antiviral activity of compounds includes both positive and negative control compounds to ensure the performance of each assay. Concurrent assessment of cytotoxicity was also performed for each study in the same cell line and with the same compound exposure.
# Assays for EBV were performed by reported methods.^37 Akata cells were induced to undergo a lytic infection with 50 μg/ml of a goat anti-human IgG antibody. Experimental compounds were diluted within plates. The cells were added and incubated for 72 h. Similar plates were initiated without virus induction/addition and used for measuring cytotoxicity by the addition of CTG. For all assays, the replication of the virus was assessed by the quantification of viral DNA. […] Compound concentrations sufficient to reduce genome copy number by 50% were calculated from experimental data as well as compound cytotoxicity.
# [2] = test system: HCMV (AD169 strain in HFF cells); assay: CPE (cytopathic effect) assay for HCMV; type: cell-based, Human Cytomegalovirus
# Protocol: Human foreskin fibroblast (HFF) cells prepared from human foreskin tissue were obtained from the University of Alabama at Birmingham tissue procurement facility with approval from its IRB. The tissue was incubated at 4° C. for 4 h in Clinical Medium consisting of minimum essential media (MEM) with Earl's salts supplemented with 10% fetal bovine serum (FBS) (Hyclone, Inc. Logan UT), L-glutamine, fungizone, and vancomycin. Tissue was then placed in phosphate buffered saline (PBS), minced, rinsed to remove the red blood cells, and resuspended in trypsin/EDTA solution. The tissue suspension was incubated at 37° C. and gently agitated to disperse the cells, which were collected by centrifugation. Cells were resuspended in 4 ml Clinical Medium and placed in a 25 cm^2 flask and incubated at 37° C. in a humidified CO2 incubator for 24 h. The media was then replaced with fresh Clinical Medium and the cell growth was monitored daily until a confluent monolayer had formed. The HFF cells were then expanded through serial passages in standard growth medium of MEM with Earl's salts supplemented with 10% FBS, L-glutamine, penicillin, and gentamycin.
# (§2) Akata cells were obtained from Louisiana State University, Baton Rouge, LA. The HCMV strain AD169 was obtained from the American Type Culture Collection (ATCC, Manassas, VA). Akata cells latently infected with EBV were obtained from Louisiana State University, Baton Rouge, LA.
# as §1
# Assays were performed in monolayers as described.37 Cells were seeded in 384 well plates and incubated for 24 h to allow the formation of confluent monolayers. Dilutions of test drug were prepared directly in the plates and the monolayers infected at a predetermined MOI based on virus used. After incubation, cytopathology was determined by the addition of CellTiter-Glo (CTG) reagent. […] Toxicity was measured using CTG as above.
# EBV (Akata/Akata) = assay: EBV assay: viral DNA quantification in induced Akata cells; type: cell-based, Epstein-Barr virus; details: for EC50: human gammaherpesvirus 4, Akata
# Protocol: as §2, §1
# Assays for EBV were performed by reported methods.^37 Akata cells were induced to undergo a lytic infection with 50 μg/ml of a goat anti-human IgG antibody. Experimental compounds were diluted within plates. The cells were added and incubated for 72 h. Similar plates were initiated without virus induction/addition and used for measuring cytotoxicity by the addition of CTG. For all assays, the replication of the virus was assessed by the quantification of viral DNA. For EBV, primers 5′-[…]-3′ and 5′-CAG TTC CTC GCCTTAGGTTG-3 amplified a fragment corresponding to coordinates 96802-97234 in EBV genome (AJ507799). Compound concentrations sufficient to reduce genome copy number by 50% were calculated from experimental data as well as compound cytotoxicity.
structure (smiles),measurement,setting,value
"CC(C)C(=O)OCC1=C[C@@H](O)[C@H](n2ccc(N)nc2=O)O1 [Compound 8, 3′-Deoxy-3′,4′-didehydro-5′-O-isobutyroyl-cytidine]",reduction of p24 levels,"HIVADA; 10 μM, by day 6 of infection",~50%
same,levels of HIV p24 viral capsid protein,"HIVADA; 100 μM, infected MDM, days 2-7, compared with DMSO control",significantly reduce; also recorded: significantly decreased
same,impact on HIV replication relative to the DMSO control,HIVADA; low doses: compound 8 compound 21 (0.1-1 μM) as printed,minimal impact
same,LDH activity in HIV-infected MDMs relative to DMSO controls,"primary human MDM; 100 μM, day 4 of infection",nearly identical
same,LDH activity relative to uninfected DMSO controls,"primary human MDM; 100 μM, uninfected or HIV-infected MDMs, day 4 of infection",no significant difference
same,toxicity to MDMs,"primary human MDM; 100 uM, visual inspection by light microscopy and colorimetric LDH assays",non-toxic
same,CC50 at 72 h,[1],> 50 µM
same,EC50,"[2]; Human betaherpesvirus 5, AD169, HFF, approximate, read-out: EC50 against HCMV",~0.02 µM
same,EC50,"[2]; Human betaherpesvirus 5, AD169 strain in HFF cells, Table 1, read-out: HCMV EC50",0.02 µM
same,activity against EBV,"EBV (Akata/Akata); cell-based assay, highest concentration tested in primary assays 50 μM",performed most favourably
same,EC50,"EBV (Akata/Akata); Akata/Akata, Table 1, read-out: EBV EC50",7.6 µM
same,EC50,"EBV (Akata/Akata); read-out: Result for compound (EC50/UM), EBV Akata/Akata, assay order Primary",7.59 µM
same,EC50,EBV (Akata/Akata); read-out: EC50 against EBV,7.6 to 38.7 µM
